Where two headings read alike, the source gives them in different places.
What was measured:
[1] = tested on: αxβ3γ2 (α = 1-6) BzR/GABA(A) subtypes; experiment: Binding across the BzR/GABA(A) subtypes (subtype selectivity in words); parameters: species or system human and rat
Method: The binding affinity of XLi093 (8) in vitro was determined on α1-6β3γ2 LTK cells and is illustrated in the Scheme as shown in FIG. 2
(§1) The affinity of all ligands at the 6 major recombinant GABAA/BzR subtypes was measured by competition for [^3H]Ro15-1788 binding to HEK-T cells expressing both human and rat GABAA/Bz receptors of composition α1β2γ2 (α1), α2β2γ2 (α2), α3β2γ2 (α3), α4β2γ2 (α4), α5β2γ2 (α5) and α6β2γ2 (α6). It is well known that the β2 and β3 subunits can be interchanged with no effect on Bz ligand affinity or efficacy. […] These studies are similar to those performed in the laboratory of Bryan Roth who has already expressed the receptors employing the work of Kucken et. al. and Gray et. al.
In brief, for membrane preparations, the cells were scraped on to the ice and diluted into 5 mL of phosphate buffered saline (pH=7.40) and cells pelleted by centrifugation for 5 min. at 4° C. The pellet was resuspended in 1 mL of 50 mM Tris-acetate buffer (pH 7.4) and centrifuged at 18,000 g for 20 min. […] The membranes were harvested in polyethyleneimine-pretreated Whatman GF/C filters and after drying and addition of scintillation cocktail, counted in a scintillation counter. […]

[2] = biological target: α4β3γ2 benzodiazepine receptor GABA(A) isoform (UniProt P18507+P48169); experiment: Radioligand competition binding, α4β3γ2 BzR/GABA(A) isoform; parameters: species or system human and rat
Method: as §1
(§2) In brief, for membrane preparations, the cells were scraped on to the ice and diluted into 5 mL of phosphate buffered saline (pH=7.40) and cells pelleted by centrifugation for 5 min. at 4° C. The pellet was resuspended in 1 mL of 50 mM Tris-acetate buffer (pH 7.4) and centrifuged at 18,000 g for 20 min. […] Each pellet were diluted to 6 mL and then 100 μL of membranes were incubated with approximately 1 nM final concentration of [^3H]Ro 15-1788 in a total volume of 250 μL together with serial dilutions of test compound for 90 min. on ice. The membranes were harvested in polyethyleneimine-pretreated Whatman GF/C filters and after drying and addition of scintillation cocktail, counted in a scintillation counter. […]

α2β3γ2 GABAA receptor = α2β3γ2 GABAA receptor (Rattus norvegicus, UniProt P18508+P23576); experiment: Two-electrode voltage clamp in Xenopus oocytes, α2β3γ2; conditions: oocytes
Sequence of α2β3γ2 GABAA receptor (P23576 29-451): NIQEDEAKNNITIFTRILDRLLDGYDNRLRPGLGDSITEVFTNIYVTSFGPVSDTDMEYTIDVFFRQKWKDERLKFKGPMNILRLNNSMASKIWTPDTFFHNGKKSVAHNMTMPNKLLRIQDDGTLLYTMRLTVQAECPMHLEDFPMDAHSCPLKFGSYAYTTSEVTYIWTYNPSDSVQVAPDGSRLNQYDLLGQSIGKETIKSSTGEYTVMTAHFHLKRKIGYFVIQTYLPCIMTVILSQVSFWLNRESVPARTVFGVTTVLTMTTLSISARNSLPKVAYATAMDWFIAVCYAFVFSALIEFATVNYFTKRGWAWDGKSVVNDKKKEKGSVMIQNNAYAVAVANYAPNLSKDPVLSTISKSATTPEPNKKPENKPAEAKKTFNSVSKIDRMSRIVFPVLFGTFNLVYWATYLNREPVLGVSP
Sequence of α2β3γ2 GABAA receptor (P63079 26-473 partner): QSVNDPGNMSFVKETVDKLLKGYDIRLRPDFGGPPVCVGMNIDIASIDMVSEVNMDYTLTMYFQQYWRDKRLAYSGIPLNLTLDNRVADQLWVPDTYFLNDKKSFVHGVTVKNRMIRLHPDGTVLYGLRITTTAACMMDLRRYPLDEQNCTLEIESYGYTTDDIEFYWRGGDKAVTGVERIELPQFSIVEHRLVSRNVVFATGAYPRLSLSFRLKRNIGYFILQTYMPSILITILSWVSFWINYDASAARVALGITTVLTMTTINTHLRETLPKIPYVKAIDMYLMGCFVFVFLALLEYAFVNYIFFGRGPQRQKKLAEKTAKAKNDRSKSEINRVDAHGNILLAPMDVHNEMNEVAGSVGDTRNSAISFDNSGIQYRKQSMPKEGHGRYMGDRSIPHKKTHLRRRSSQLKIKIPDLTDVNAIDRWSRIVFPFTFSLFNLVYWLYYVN
Sequence of α2β3γ2 GABAA receptor (P18508 39-466): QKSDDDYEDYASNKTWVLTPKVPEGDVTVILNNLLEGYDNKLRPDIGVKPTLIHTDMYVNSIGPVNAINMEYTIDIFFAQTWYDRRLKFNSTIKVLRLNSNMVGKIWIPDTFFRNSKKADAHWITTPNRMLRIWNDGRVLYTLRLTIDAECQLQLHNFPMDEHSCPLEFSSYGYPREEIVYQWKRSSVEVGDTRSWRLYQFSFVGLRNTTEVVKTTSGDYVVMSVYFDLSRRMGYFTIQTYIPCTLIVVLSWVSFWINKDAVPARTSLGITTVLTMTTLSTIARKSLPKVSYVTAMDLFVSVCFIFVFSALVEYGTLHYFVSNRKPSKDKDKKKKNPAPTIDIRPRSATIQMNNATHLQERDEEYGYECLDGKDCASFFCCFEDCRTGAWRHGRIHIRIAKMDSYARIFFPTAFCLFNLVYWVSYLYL

Tail flick assay = conditions: in vivo
[3] = biological target: T1, α1β3γ2 benzodiazepine receptor GABA(A) isoform (UniProt P14867+P18507); experiment: Radioligand competition binding, α1β3γ2 BzR/GABA(A) isoform; parameters: rows headed: Ki α1 (in words); other: text; HEK-T cells (Roth et al.); species or system human and rat; conditions: HEK-T cells (Roth et al.)
T1 sequence (P14867 1-456): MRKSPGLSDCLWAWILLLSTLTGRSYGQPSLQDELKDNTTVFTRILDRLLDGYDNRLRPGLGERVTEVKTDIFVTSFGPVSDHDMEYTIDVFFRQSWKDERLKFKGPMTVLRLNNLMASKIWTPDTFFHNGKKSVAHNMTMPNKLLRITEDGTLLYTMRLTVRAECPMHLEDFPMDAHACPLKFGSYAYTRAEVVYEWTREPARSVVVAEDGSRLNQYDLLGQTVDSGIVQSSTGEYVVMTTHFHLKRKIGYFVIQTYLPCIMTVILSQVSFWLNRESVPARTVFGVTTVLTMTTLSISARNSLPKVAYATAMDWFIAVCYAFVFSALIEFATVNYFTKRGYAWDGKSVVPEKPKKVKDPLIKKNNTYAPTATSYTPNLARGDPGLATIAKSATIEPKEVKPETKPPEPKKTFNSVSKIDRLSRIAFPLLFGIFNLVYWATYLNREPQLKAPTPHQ
T1 sequence (P18507 1-475): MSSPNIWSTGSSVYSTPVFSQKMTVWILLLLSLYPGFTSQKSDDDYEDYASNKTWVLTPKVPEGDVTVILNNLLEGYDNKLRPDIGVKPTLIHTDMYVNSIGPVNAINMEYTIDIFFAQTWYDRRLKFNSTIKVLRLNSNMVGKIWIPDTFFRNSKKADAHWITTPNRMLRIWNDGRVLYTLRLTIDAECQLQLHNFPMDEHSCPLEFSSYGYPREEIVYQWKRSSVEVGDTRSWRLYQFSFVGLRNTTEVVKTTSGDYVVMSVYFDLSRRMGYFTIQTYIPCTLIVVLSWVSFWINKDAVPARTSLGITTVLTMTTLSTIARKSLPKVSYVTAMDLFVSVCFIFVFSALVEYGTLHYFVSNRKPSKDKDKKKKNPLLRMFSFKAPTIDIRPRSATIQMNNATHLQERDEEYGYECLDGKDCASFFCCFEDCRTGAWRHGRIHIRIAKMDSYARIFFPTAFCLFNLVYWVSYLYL
Method: as §1, §2

With CCOC(=O)c1ncn2c1CN=C(c1ccccc1)c1cc(-c3ccccc3)ccc1-2 [DM-I-81, Ethyl 8-phenyl-6-phenyl-4H-benzo[f]imidazo[1,5-a][1,4]diazepine-3-carboxylate] the “affinity at other BzR/GABA(A) subtypes than α5 (in words)” value [1] was “binds only to α5β3γ2 subtypes”, the Ki ([2]; Table I, means of two determinations, read-out: Ki α4) was greater than 2 µM and the Ki ([2]; untitled table of lead compounds, unit inferred, read-out: α4) was greater than 2 µM. The melting point was 200 to 201 °C.

With COCc1ncn2c1CN(C)C(=O)c1cc(Cl)ccc1-2 [PWZ-029, methyl(8-chloro-5,6-dihydro-5-methyl-6-oxo-4H-imidazo[1,5-α][1,4]benzodiazepin-3-yl)methyl ether] the “efficacy / modulation of GABA elicited currents at α2 (in words)” value (α2β3γ2 GABAA receptor) was “very, very weak agonist activity”.

With CCc1ccc2c(c1)C(=O)N(C)Cc1c(C(=O)OCCCOC(=O)c3ncn4c3CN(C)C(=O)c3cc(CC)ccc3-4)ncn1-2 [XLi356, 1,3-Bis(8-ethyl-5,6-dihydro-5-methyl-6-oxo-4H-imidazo[1,5a][1,4]benzodiazepine-3-carboxy)propyl diester] the “analgesic effect in tail flick assay (in words)” value (Tail flick assay) was “No analgesic effect” and the “Ki α1 (in words)” value [3] was “no affinity”.

Reference: patent US7595395B2, “Gabaergic agents to treat memory deficits” (priority 2005, dated 2009)
